Literature values as cited in EP0005248A2, “Tetrapeptidehydrazide derivatives and process for their preparation” (Takeda Chemical Industries, Ltd., priority 1978, dated 1979).

Conditions: for analgesic action: intravenous administration

Row | Substance | morphinomimetic action (directly administered by the intracerebral route) | analgesic action
1 | H=ryr -Gly-Gly-Phe-Met-OH | display a morphinemimetic action | do not have an analgesic action
2 | β-Endorphin (YGGFMTSEKSQTPLVTLFKNAIIKNAYKKGE; Beta-endorphin; UniProt P01189 237-267, looked up) |  | profound analgesic effects
